Structures can show the parent of a compound that is named as a salt.
Tests used:
[1] = Feasibility pK rat study (LAI potential of aqueous micro-suspensions, IM); format: in vivo; conditions: 50 mg/kg, aqueous micro-suspension 125 mg/mL; for long-acting release profile (yes/no): citrate buffer pH 5, FIG. 9
Description: For this study, aqueous micro-suspensions of Selexipag, {4-[(5,6-diphenylpyrazin-2-yl)(propan-2-yl)amino]butoxy}acetic acid and calcium; {4-[(5,6-diphenylpyrazin-2-yl)(propan-2-yl)amino]butoxy}acetate were prepared. An overview of the design of the study can be found in Table 1.
Release profiles and mean AUC of the different formulations are depicted in FIG. 9.

[2] = Solubility in water / aqueous media and dissolution rate; format: physicochemical; conditions: for solubility: water / aqueous media
[3] = Physical stability of solid form on storage (7 days, humidity); format: physicochemical
[4] = Hygroscopicity (change in mass between 0 and 90% RH); format: physicochemical
[5] = test system: pulmonary arterial hypertension; conditions: phase III, patients with pulmonary arterial hypertension; cited from earlier work
[6] = 7 days storage at 25° C./97% RH
[7] = 7 days storage at 40° C./75% RH

Molecule	physical stability after storage [3, 6]	physical stability after storage [3, 7]	long-acting release profile (yes/no) [1]	dissolution rate [2]	solubility [2]	other results
CC(C)N(CCCCOCC(=O)O)c1cnc(-c2ccccc2)c(-c2ccccc2)n1 [Ca-salt of ACT-333679, calcium; {4-[(5,6-diphenylpyrazin-2-yl)(propan-2-yl)amino]butoxy}acetate]						duration of long-acting release profile ([1]; FIG. 9): up to 336 hours; time until which AUC increases ([1]; FIG. 9): ≤ 720 h; plasma concentrations compared to both other groups ([1]; PVP K17 citrate buffer, FIG. 9): significant lower plasma concentrations; solubility ([2]; listed as calcium salt of selexipag metabolite): low solubility in water; solubility ([2]; {4-[(5,6-diphenylpyrazin-2-yl)(propan-2-yl)amino]butoxy}acetate): low solubility in aqueous media
calcium; {4-[(5,6-diphenylpyrazin-2-yl)(propan-2-yl)amino]butoxy}acetate [Form 2]	physically stable	physically stable				hygroscopicity [4]: slightly hygroscopic; reversible change in mass ([4]; between 0 and 90% RH): 2%
CC(C)N(CCCCOCC(=O)O)c1cnc(-c2ccccc2)c(-c2ccccc2)n1 [Selexipag metabolite, 2-(4-((5,6-diphenylpyrazin-2-yl)(isopropyl)amino)butoxy)acetic acid]			did not demonstrate a long-acting release profile	high	high	
Calcium; {4-[(5,6-diphenylpyrazin-2-yl)(propan-2-yl)amino]butoxy}acetate [Amorphous Form]	physically stable	physically stable				
CC(C)N(CCCCOCC(=O)NS(C)(=O)=O)c1cnc(-c2ccccc2)c(-c2ccccc2)n1 [Selexipag, 2-{4-[(5,6-diphenylpyrazin-2-yl)(propan-2-yl)amino]butoxy}-N-(methanesulfonyl)acetamide]			did not demonstrate a long-acting release profile	high	high	risk of the primary composite end point of death or a complication related to pulmonary arterial hypertension vs placebo [5]: significantly lower

From patent US20240425463A1, “PROCESS FOR MANUFACTURING A DIPHENYLPHRAZINE DERIVATIVE” (ACTELION PHARMACEUTICALS LTD, priority 2021, published 2024)
